# Test results taken from patent US5278181A, “Soluble alkyl[5-[amino (phenyl)methyl]-1H-benzimidazol-2-yl] carbamate anthelmintics” (priority 1992, dated 1994).
# Values joined by “and” are separate entries in the source; they are usually repeats but may differ in a detail not shown here. Identical values can stand only once.
# Experiments:
# B. pahangi and A. viteae = experiment: Antifilarial activity in jirds, dual infection, summary in words; type: in vivo; conditions: both oral and parenteral routes
# From the text: (§1) Dual infections of the filarial worms Brugia pahangi and Acanthocheilonema viteae in jirds are used routinely for antifilarial screening [McCall, J. W., McTier, T. L., and Rowan, S. J., "In vivo models for evaluating potential antifilarial agents", Onchocerciasis/Filariasis (Proceedings of a Symposium sponsored by the World Health Organization), Kalamazoo, Mich., Apr. 8-10, 23-24 (1986)].
# For this dual infection screen, male Mongolian jirds weighing 50-60 g are infected SC with 10 (5 male and 5 female) adult A. viteae, transplanted under sodium pentobarbital anesthesia (48 mg/kg) from donor hamsters infected SC 8 weeks earlier. Two weeks later, 20 (10 male and 10 female) adult B. pahangi, taken from donor jirds infected IP 8 weeks earlier, are transplanted into the peritoneal cavity of each jird under sodium pentobarbital anesthesia. After an additional week, when the jirds have acceptable levels of microfilaremia, they are randomly allocated to treatment groups of 3 animals each and a nontreated group of 4-6 animals. Microfilaremia is determined on days 0 (just prior to the first dose), 4 and 56 post-treatment. […] Live worms are identified as to species, noted as to sex, and counted. The number of dead and/or encapsulated worms is also recorded. […]
# Brugia pahangi = experiment: Antifilarial dual infection screen in jirds: adult B. pahangi burden; type: in vivo, in Mongolian jirds
# From the text: as §1
# (§2) For this dual infection screen, male Mongolian jirds weighing 50-60 g are infected SC with 10 (5 male and 5 female) adult A. viteae, transplanted under sodium pentobarbital anesthesia (48 mg/kg) from donor hamsters infected SC 8 weeks earlier. Two weeks later, 20 (10 male and 10 female) adult B. pahangi, taken from donor jirds infected IP 8 weeks earlier, are transplanted into the peritoneal cavity of each jird under sodium pentobarbital anesthesia. After an additional week, when the jirds have acceptable levels of microfilaremia, they are randomly allocated to treatment groups of 3 animals each and a nontreated group of 4-6 animals. Microfilaremia is determined on days 0 (just prior to the first dose), 4 and 56 post-treatment. Unless indicated otherwise, compounds are suspended in hydroxyethylcellulose (0.5%) - Tween 80 (0.1%) and administered SC at 100 mg/kg/day for 5 consecutive days. All jirds are killed on day 56 post-treatment to determine the effects of drugs on adults of A. viteae and B. pahangi. Live worms are identified as to species, noted as to sex, and counted. The number of dead and/or encapsulated worms is also recorded. A reduction of ≥80% in microfilaremia or ≥50% in adult worm burden (either species) compared with pre-treatment microfilaremia or non-treated control worm burden, respectively, is considered to be significant. For secondary testing with this dual infection screen, groups of 7 animals each are used. For oral dosing, drugs are dissolved or suspended in hydroxyethylcellulose - Tween 80 and administered by gavage.
# Acanthocheilonema viteae = experiment: Antifilarial dual infection screen in jirds: adult A. viteae burden and microfilaremia; type: in vivo, in Mongolian jirds
# From the text: as §1, §2
# [1] = 1.56 mg/kg/day × 5 days, SC, day 56
# [2] = 3.13 mg/kg/day × 5 days, SC, day 56, 3.13 mg/kg/day
# [3] = 12.5 mg/kg/day × 1 day, SC, day 56
# [4] = 12.5 mg/kg/day × 5 days, SC, day 56
# [5] = 25 mg/kg/day × 1 day, SC, day 56
# [6] = 25 mg/kg/day × 5 days, SC, day 56
# [7] = 75 mg/kg/day × 5 days, oral, day 56
# [8] = 100 mg/kg/day × 5 days, oral, day 56
smiles,measurement,setting,value
"COC(=O)Nc1nc2cc(C(N)c3ccc(F)cc3)ccc2[nH]1.Cl.Cl (racemic) [Example 2, Methyl (±)-[5-[Amino(4Fluorophenyl)Methyl]-1H-Benzimidazol-2-yl]Carbamate Dihy drochloride Salt]",antifilarial activity in jirds,B. pahangi and A. viteae,outstanding antifilarial activity
same,"% Macrofilarial reduction, B. pahangi",Brugia pahangi; [1],22%
same,"% Macrofilarial reduction, B. pahangi",Brugia pahangi; [2],84% and 88%
same,"% Macrofilarial reduction, B. pahangi","Brugia pahangi; 6.25 mg/kg/day × 5 days, SC, day 56, 6.25 mg/kg/day",96% and 98%
same,"% Macrofilarial reduction, B. pahangi",Brugia pahangi; [3],72%
same,"% Macrofilarial reduction, B. pahangi",Brugia pahangi; [4],100%
same,"% Macrofilarial reduction, B. pahangi",Brugia pahangi; [5],100%
same,"% Macrofilarial reduction, B. pahangi",Brugia pahangi; [6],100%
same,"% Macrofilarial reduction, B. pahangi",Brugia pahangi; [7],30%
same,"% Macrofilarial reduction, B. pahangi",Brugia pahangi; [8],32%
same,"% Macrofilarial reduction, A. viteae",Acanthocheilonema viteae; [1],48%
same,"% Microfilarial reduction, A. viteae, Day 4","Acanthocheilonema viteae; 3.13 mg/kg/day × 5 days, SC",88%
same,"% Microfilarial reduction, A. viteae, Day 56","Acanthocheilonema viteae; 3.13 mg/kg/day × 5 days, SC",100%
same,"% Macrofilarial reduction, A. viteae",Acanthocheilonema viteae; [2],74% and 69%
same,"% Microfilarial reduction, A. viteae, Day 4","Acanthocheilonema viteae; 6.25 mg/kg/day × 5 days, SC",83%
same,"% Microfilarial reduction, A. viteae, Day 56","Acanthocheilonema viteae; 6.25 mg/kg/day × 5 days, SC",100%
same,"% Macrofilarial reduction, A. viteae","Acanthocheilonema viteae; 6.25 mg/kg/day × 5 days, SC, day 56",100%
same,"% Macrofilarial reduction, A. viteae",Acanthocheilonema viteae; [3],83%
same,"% Microfilarial reduction, A. viteae, Day 4","Acanthocheilonema viteae; 12.5 mg/kg/day × 5 days, SC",80%
same,"% Microfilarial reduction, A. viteae, Day 56","Acanthocheilonema viteae; 12.5 mg/kg/day × 5 days, SC",100%
same,"% Macrofilarial reduction, A. viteae",Acanthocheilonema viteae; [4],100%
same,"% Macrofilarial reduction, A. viteae",Acanthocheilonema viteae; [5],96%
same,"% Macrofilarial reduction, A. viteae",Acanthocheilonema viteae; [6],100%
same,"% Macrofilarial reduction, A. viteae",Acanthocheilonema viteae; [7],83%
same,"% Microfilarial reduction, A. viteae, Day 4","Acanthocheilonema viteae; 100 mg/kg/day × 5 days, oral",50%
same,"% Microfilarial reduction, A. viteae, Day 56","Acanthocheilonema viteae; 100 mg/kg/day × 5 days, oral",75%
same,"% Macrofilarial reduction, A. viteae",Acanthocheilonema viteae; [8],80%
